Laboratory results as given in patent US8246981B2, “Transdermal method and patch for emesis” (Abeille Pharamaceuticals, Inc., priority 2005, dated 2012).

Conditions: IV bolus, once-daily 2 mg/day
Procedure: A randomized crossover clinical study was conducted in 11 individuals who received either a transdermal patch or an IV solution of granisetron. […] This was followed by a 10 day wash-out period, after which the same individuals received granisetron IV in once-daily dosages of 2 mg/day Individuals who received the IV treatment in the first period received a transdermal patch in the cross over treatment. Blood plasma levels of granisetron for all of the individuals in the test were measured periodically during the 96 hour time that the patches were being worn and the IV dosages were being administered, and for an additional 2 days after the patches were removed and the IV administration discontinued.

For `CN1C2CCCC1CC(NC(=O)c1nn(C)c3ccccc13)C2` (stereo not shown) [IV granisetron, granisetron], the “blood plasma level profile” value was “sharp spikes in blood plasma levels”.
